The values below come from patent US20240327364A1, “THERAPEUTIC TARGETING OF GPR68 TO INDUCE FERROPTOSIS” (University Of Maryland, Baltimore, priority 2023, published 2024).

SMILES strings stand for the structures.

One assay relates to zebrafish embryo. As to the kind of experiment: Zebrafish embryo phenotype. In kind it is in vivo. The following applies: 10 uM. As for the experimental part:
A chemical screen for small molecules that perturb embryonic development (dorsoventral axis) in zebrafish was performed as previously described (see Chen et al., 2009; Hao et al., 2013; Williams et al., 2015; Yu et al., 2008)). Briefly, pairs of WT zebrafish were mated, and fertilized eggs were arrayed in 96-well microtiter plates (5 embryos/well) containing […] E3 water. At 4 hours post fertilization (pf), a small molecule library from Vanderbilt High Throughput Screening Facility was added to each well to a final concentration of 10 μM. Embryos were incubated at 28.5 C until 24 and 48 hours pf, when they were examined for gross morphologic changes indicative of reproducible embryonic defects (dorsalization of the embryonic axis). A total of 30,000 compounds were screened. To discover novel small molecule modulators of embryonic development an unbiased screen of ˜30,000 small molecules was conducted, in which the compounds were assayed for their ability to induce phenotypic changes in the morphology of zebrafish. Further information on these assays can be found in Hao et al., 2013 and Williams et al., 2015. […] This compound was identified based on the phenotype of aberrant pigmentation. Compare FIG. 2B and FIG. 2C, which show a dorsal view of a representative DMSO vehicle control-treated zebrafish embryo at 48 hours pf and a dorsal view of a representative OGM1 (10 uM)-treated zebrafish embryo at 48 hours pf. […] Since GPCRs represent >30% of targets for FDA-approved small molecules and are known to modulate cell migration, activity against 158 GPCRs was assessed based on their chemical structures. GPCRs (158) were tested for agonist and antagonist activity at 10 μM. […] Chemical segregation analysis of zebrafish phenotype was conducted to further identify the inhibitory activity responsible for the zebrafish phenotype. […] The identities of the R groups in Formula A are shown below in Table 5.

A further assay has as its target T1, AMPK-alpha2 (Homo sapiens, UniProt P54646).
T1 construct: purchased DiscoveRx (Fremont, CA)
The assay can be described thus: KinomeScan. In kind it is binding. The following applies: read-out: % Control.

Another assay concerns the target T2, BRAF(V600E) (Homo sapiens, UniProt P15056, V600E).
T2 construct: purchased DiscoveRx (Fremont, CA)
As to the kind of experiment: KinomeScan. In kind it is binding. The settings on record: read-out: % Control.

Another assay has as its target T3, EPHB6 (Homo sapiens, UniProt O15197).
T3 construct: purchased DiscoveRx (Fremont, CA)
As to the kind of experiment: KinomeScan. The settings on record: read-out: % Control. It is filed as binding.

The target of a further assay is T4, KIT(V559D) (Homo sapiens, UniProt P10721, V559D).
T4 construct: purchased DiscoveRx
As to the kind of experiment: KinomeScan. In kind it is binding. The following applies: read-out: % Control.

For the next assay, the target named is T5, LRRK2 (Homo sapiens, UniProt Q5S007).
T5 construct: purchased DiscoveRx
As to the kind of experiment: KinomeScan. In kind it is binding. The settings on record: read-out: % Control.

The target in a further assay is T6, MET (Homo sapiens, UniProt P08581).
T6 construct: purchased DiscoveRx (Fremont, CA)
As to the kind of experiment: KinomeScan. The following applies: read-out: % Control. In kind it is binding.

The target of another assay is T7, PCTK2 (Homo sapiens, UniProt Q00537).
T7 construct: purchased DiscoveRx
The assay can be described thus: KinomeScan. In kind it is binding. The settings on record: read-out: % Control.

The target in another assay is T8, PFCDPK1(P. falciparum) (Plasmodium falciparum, UniProt P62344).
T8 construct: purchased DiscoveRx (Fremont, CA)
The assay can be described thus: KinomeScan. In kind it is binding. The following applies: read-out: % Control.

In another assay the target is T9, PIK3CA(C420R) (Homo sapiens, UniProt P42336, C420R).
T9 construct: purchased DiscoveRx (Fremont, CA)
The assay can be described thus: KinomeScan. It is filed as binding. The settings on record: read-out: % Control.

The target in another assay is T10, PIM1 (Homo sapiens, UniProt P11309).
T10 construct: purchased DiscoveRx (Fremont, CA)
The assay can be described thus: KinomeScan. It is filed as binding. The following applies: read-out: % Control.

The target of the next assay is T11, ROCK1 (Homo sapiens, UniProt Q13464).
T11 construct: purchased DiscoveRx (Fremont, CA)
As to the kind of experiment: KinomeScan. In kind it is binding. The settings on record: read-out: % Control.

For assay [1], the target named is T12, RPS6KA5(Kin.Dom.2-C-terminal) (Homo sapiens, UniProt O75582).
T12 construct: RPS6KA5(Kin.Dom.2-C-terminal); purchased DiscoveRx (Fremont, CA)
As to the kind of experiment: KinomeScan. In kind it is binding. The following applies: read-out: % Control.

In a further assay the target is T13, SgK110 (Homo sapiens, UniProt P0C264).
T13 construct: purchased DiscoveRx (Fremont, CA)
As to the kind of experiment: KinomeScan. In kind it is binding. The following applies: read-out: % Control.

The target of a further assay is T14, TIE1 (Homo sapiens, UniProt P35590).
T14 construct: purchased DiscoveRx (Fremont, CA)
The assay can be described thus: KinomeScan. It is filed as binding. The settings on record: read-out: % Control.

The target of another assay is T15, CCR3 (Homo sapiens, UniProt P51677).
T15 construct: host or cells: Chem-1 cells with Gα15
As to the kind of experiment: GPCR Profiler. In kind it is cell-based.

A further assay has as its target T16, CXCR6 (Homo sapiens, UniProt O00574).
T16 construct: host or cells: Chem-1 cells with Gα15
As to the kind of experiment: GPCR Profiler. In kind it is cell-based.

The next assay concerns the target T17, GLP-2 (Homo sapiens, UniProt O95838).
T17 construct: host or cells: Chem-1 cells expressing Gα15
As to the kind of experiment: GPCR Profiler. In kind it is cell-based.

In the next assay the target is T18, GPR91 (Homo sapiens, UniProt Q9BXA5).
T18 construct: host or cells: Chem-1 cells with promiscuous Gα15
The assay can be described thus: GPCR Profiler. In kind it is cell-based.

The next assay addresses T19, MCHR2 (Homo sapiens, UniProt Q969V1).
T19 construct: host or cells: Chem-1 cells expressing Gα15
As to the kind of experiment: GPCR Profiler. It is filed as cell-based.

In a further assay the target is T20, OT (Homo sapiens, UniProt P30559).
T20 construct: host or cells: Chem-1 cells expressing Gα15
The assay can be described thus: GPCR Profiler. It is filed as cell-based.

A further assay has as its system Thrombin Activated PARs. The assay can be described thus: GPCR Profiler. In kind it is cell-based.
In assay [2] the test system is ALI induced by HTV, LPS and both. The assay can be described thus: HTV mechanical ventilation / LPS acute lung injury. In kind it is in vivo, C57Bl mice. The source says: FIG. 38A through FIG. 38D: High-tidal volume (HTV) mechanical ventilation causes ALI and exacerbates ALI caused by LPS (“two-hit”) in C57Bl mice, and OGM2 attenuates these effects. […] Lungs from mice treated with OGM2 are marked with “+”. […] Here, OGM and OGM8345=OGM2.

The next assay has as its system PANC02. As to the kind of experiment: Clonogenicity (crystal violet). In kind it is cell-based. The settings on record: 7 days. As for the experimental part:
In a third study, PANC02 pancreatic cells were plated at 400 cells per well in a 6-well plate and on the next day were treated with increasing concentrations of OGM2 for 7 days. The plate was fixed with formalin and stained with crystal violet.

T15 sequence (P51677 whole entry, species assumed): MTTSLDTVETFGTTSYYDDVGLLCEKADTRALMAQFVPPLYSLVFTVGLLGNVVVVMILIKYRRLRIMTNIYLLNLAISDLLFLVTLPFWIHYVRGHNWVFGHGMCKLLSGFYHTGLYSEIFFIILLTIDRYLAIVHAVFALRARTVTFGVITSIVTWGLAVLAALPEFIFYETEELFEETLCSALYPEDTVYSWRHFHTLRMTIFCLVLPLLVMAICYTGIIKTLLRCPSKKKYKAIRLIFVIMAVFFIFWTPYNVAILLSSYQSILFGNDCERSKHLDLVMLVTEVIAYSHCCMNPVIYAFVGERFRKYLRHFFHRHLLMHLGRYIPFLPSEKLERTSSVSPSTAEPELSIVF
T19 sequence (Q969V1 whole entry, species assumed): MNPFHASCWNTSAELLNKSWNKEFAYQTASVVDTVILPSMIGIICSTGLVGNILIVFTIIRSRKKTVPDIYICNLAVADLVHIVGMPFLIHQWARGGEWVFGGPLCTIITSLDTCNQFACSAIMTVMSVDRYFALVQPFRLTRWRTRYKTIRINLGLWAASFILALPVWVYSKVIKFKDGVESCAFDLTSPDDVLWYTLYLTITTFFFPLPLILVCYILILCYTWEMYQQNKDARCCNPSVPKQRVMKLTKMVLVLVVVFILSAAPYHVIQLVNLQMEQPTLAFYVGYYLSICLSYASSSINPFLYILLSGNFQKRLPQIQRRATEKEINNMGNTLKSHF
T17 sequence (O95838 whole entry): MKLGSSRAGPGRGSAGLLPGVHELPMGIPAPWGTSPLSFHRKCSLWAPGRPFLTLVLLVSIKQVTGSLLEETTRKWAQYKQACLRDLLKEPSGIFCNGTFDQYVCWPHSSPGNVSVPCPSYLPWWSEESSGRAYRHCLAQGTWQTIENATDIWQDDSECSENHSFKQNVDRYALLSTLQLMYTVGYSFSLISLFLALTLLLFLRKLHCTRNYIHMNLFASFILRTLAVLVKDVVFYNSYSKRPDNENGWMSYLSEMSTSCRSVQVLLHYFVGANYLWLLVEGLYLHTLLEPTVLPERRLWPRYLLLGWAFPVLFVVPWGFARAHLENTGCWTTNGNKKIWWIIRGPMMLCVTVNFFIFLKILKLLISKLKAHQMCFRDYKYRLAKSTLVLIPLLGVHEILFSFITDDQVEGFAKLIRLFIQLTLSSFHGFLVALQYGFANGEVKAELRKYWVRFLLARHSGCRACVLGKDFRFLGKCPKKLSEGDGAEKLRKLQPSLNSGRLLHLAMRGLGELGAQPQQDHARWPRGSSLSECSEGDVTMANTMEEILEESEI
T16 sequence (O00574 whole entry, species assumed): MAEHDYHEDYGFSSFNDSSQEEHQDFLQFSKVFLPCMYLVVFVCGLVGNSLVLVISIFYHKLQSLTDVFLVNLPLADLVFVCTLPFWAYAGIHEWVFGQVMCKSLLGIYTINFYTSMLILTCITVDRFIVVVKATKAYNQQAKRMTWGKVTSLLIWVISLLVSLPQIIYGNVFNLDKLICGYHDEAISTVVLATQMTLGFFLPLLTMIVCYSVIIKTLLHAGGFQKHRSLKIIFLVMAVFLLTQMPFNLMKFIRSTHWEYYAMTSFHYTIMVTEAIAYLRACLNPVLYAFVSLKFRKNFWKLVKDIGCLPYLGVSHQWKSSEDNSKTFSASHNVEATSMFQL
T18 sequence (Q9BXA5 whole entry, species assumed): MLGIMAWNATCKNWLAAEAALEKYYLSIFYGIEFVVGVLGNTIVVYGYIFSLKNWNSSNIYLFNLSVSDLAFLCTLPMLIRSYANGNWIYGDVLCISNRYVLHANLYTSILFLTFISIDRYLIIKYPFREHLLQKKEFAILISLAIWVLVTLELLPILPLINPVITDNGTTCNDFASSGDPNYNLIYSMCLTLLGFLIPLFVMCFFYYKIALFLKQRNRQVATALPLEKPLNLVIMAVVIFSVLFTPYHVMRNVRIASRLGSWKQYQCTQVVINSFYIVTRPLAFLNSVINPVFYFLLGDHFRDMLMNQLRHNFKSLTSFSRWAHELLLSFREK
T20 sequence (P30559 whole entry): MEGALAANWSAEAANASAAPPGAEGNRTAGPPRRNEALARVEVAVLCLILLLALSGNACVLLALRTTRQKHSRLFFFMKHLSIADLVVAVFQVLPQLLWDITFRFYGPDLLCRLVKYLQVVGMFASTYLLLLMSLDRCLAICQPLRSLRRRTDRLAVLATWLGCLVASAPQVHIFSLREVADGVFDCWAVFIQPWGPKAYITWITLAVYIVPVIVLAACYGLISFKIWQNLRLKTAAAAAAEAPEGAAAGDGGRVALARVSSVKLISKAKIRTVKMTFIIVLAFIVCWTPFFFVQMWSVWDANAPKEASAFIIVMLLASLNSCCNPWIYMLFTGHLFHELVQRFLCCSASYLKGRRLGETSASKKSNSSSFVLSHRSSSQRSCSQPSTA
T14 sequence (P35590 22-1138): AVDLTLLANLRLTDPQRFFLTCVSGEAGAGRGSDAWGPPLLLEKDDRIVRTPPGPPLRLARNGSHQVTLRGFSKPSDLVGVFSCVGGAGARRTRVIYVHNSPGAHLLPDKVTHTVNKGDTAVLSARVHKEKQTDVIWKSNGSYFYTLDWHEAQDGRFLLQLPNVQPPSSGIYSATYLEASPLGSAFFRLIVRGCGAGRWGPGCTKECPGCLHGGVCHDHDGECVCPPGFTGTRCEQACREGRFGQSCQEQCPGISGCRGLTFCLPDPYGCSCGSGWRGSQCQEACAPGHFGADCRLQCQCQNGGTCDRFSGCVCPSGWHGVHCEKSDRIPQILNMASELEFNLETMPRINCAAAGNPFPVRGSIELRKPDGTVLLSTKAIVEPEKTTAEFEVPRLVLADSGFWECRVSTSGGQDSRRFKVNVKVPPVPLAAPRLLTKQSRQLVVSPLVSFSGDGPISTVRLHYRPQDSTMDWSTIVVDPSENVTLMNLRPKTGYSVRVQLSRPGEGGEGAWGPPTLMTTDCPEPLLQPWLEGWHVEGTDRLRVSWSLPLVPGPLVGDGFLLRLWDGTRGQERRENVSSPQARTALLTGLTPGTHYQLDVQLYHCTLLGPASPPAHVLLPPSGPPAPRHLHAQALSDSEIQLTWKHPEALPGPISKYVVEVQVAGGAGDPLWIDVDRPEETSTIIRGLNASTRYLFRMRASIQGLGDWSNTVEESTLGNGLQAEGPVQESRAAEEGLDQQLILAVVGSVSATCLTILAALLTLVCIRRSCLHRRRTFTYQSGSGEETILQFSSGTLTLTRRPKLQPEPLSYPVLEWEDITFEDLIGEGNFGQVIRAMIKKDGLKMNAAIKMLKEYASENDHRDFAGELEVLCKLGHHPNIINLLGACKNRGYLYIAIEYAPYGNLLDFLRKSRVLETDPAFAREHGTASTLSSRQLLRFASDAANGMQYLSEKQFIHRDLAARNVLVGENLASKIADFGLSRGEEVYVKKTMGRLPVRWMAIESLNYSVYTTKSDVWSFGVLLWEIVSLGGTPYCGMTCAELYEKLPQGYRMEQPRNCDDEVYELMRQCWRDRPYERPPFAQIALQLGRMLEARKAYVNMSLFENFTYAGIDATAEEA
T12 sequence (O75582 426-687 limits assumed): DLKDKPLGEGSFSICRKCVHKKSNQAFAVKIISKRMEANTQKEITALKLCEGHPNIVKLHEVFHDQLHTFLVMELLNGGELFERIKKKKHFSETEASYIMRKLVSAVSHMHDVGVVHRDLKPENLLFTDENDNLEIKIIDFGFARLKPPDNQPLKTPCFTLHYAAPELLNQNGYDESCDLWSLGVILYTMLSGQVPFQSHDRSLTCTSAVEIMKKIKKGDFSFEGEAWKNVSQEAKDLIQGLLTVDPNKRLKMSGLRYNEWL
T7 sequence (Q00537 whole entry): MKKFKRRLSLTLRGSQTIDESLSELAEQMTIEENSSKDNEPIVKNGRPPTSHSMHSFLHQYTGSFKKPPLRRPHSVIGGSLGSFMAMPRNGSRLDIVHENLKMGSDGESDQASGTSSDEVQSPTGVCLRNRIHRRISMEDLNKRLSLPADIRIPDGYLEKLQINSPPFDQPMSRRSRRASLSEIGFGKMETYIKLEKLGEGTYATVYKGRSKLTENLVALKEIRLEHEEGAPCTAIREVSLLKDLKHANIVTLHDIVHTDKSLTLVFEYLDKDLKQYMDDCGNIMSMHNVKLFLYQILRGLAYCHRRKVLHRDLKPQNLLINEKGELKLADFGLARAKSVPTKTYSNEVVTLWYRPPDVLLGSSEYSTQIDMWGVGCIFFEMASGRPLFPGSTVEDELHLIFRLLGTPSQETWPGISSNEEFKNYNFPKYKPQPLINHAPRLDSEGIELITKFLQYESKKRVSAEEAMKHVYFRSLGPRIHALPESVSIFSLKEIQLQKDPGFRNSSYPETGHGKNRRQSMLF
T1 sequence (P54646 whole entry): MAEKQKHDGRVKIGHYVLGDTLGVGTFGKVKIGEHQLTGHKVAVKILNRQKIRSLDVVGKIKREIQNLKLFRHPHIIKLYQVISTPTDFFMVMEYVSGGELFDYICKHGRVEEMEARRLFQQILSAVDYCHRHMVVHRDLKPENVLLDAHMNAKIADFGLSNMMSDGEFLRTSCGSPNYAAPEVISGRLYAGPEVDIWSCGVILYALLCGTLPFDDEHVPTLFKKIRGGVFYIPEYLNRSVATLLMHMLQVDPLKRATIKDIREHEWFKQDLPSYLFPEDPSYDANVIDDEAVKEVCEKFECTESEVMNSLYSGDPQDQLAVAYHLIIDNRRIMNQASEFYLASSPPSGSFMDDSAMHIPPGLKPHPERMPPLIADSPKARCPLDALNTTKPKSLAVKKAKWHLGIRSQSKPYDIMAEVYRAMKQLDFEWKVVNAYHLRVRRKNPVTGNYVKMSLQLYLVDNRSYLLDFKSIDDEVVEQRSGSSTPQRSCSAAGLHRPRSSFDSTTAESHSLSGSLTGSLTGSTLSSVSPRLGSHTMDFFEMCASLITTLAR

In the case of `CCc1ccc2c(c1)C1(NN=C(c3cccc4ccccc34)S1)C(=O)N2` (stereo not shown) [OGM1, 5-ethyl-5′-naphthalen-1-ylspiro[1H-indole-3,2′-3H-1,3,4-thiadiazole]-2-one], the phenotypes induced entry in the assay on zebrafish embryo is “reproducibly induced ventral curvature, wavy notochord, shortened body axis, craniofacial defects, and loss of retinal iridophores”. Also, the remaining binding at 10 µM was determined as 100% at AMPK-alpha2; 94% on BRAF(V600E); 76% on EPHB6; 71% on KIT(V559D); 100% on LRRK2; 100% on MET. Also, the remaining binding at 10 µM amounted to 100% on PCTK2; 95% at PFCDPK1(P. falciparum); 100% at PIK3CA(C420R); 56% at PIM1; 71% on ROCK1; 91% in assay [1]. In addition, the remaining binding at 10 µM on SgK110 was 100%; on TIE1, 94%. Besides, the Antagonism on CCR3 (10 uM) is −9.9; at CXCR6 (10 uM), −14; at GLP-2 (10 uM), 2.1; on GPR91 (10 uM), −5.4; on MCHR2 (10 uM), −8.2; on OT (10 uM), −2.4. In the assay on Thrombin Activated PARs (10 uM), the Antagonism turned out to be 3.2. Also, the Agonism is reported as 0.8 on CCR3 (12.5 uM); 0 at CXCR6 (12.5 uM); −0.2 at GLP-2 (12.5 uM); 1.2 at GPR91 (12.5 uM); 0.3 on MCHR2 (12.5 uM); 0.7 at OT (12.5 uM). This compound returned an Agonism in the assay with Thrombin Activated PARs (12.5 uM) of 1.
Take `CCc1ccc2c(c1)C1(NN=C(c3ccccc3)S1)C(=O)N2` (stereo not shown) [OGM2]: the “lung vascular leak (Evans blue)” value in [2] (OGM2 40 mg/kg ip 15 minutes before HTV) is “significantly attenuated lung vascular leak”. For the same compound, in [2] (mouse, in vivo), the BAL cell count entry was “significantly attenuated the rise”, the BAL protein concentration entry was “significantly attenuated the rise” and the “inflammatory cytokine mRNA expression” value is “blunted the rise”. Further, the clonogenicity entry with PANC02 is “reduced the clonogenicity of pancreatic cancer cells”.
